Test [1] concerns the target T1, Alpha-2A adrenergic receptor (Homo sapiens, UniProt P08913).
T1 sequence (P08913 whole entry): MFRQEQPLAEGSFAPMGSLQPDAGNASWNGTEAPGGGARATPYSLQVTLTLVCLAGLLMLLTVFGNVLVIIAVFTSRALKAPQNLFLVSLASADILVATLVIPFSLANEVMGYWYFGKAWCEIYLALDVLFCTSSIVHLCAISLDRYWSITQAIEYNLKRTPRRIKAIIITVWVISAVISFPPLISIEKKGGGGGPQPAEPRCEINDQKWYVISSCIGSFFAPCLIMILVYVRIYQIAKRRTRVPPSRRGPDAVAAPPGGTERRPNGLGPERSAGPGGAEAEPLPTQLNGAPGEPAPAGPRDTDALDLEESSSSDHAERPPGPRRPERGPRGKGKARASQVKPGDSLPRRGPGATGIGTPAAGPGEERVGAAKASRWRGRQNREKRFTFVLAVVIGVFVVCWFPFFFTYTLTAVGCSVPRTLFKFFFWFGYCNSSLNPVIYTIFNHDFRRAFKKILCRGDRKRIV

The target of test [2] is T2, Alpha-2A adrenergic receptor (Bos taurus, UniProt Q28838).
T2 sequence (Q28838 whole entry): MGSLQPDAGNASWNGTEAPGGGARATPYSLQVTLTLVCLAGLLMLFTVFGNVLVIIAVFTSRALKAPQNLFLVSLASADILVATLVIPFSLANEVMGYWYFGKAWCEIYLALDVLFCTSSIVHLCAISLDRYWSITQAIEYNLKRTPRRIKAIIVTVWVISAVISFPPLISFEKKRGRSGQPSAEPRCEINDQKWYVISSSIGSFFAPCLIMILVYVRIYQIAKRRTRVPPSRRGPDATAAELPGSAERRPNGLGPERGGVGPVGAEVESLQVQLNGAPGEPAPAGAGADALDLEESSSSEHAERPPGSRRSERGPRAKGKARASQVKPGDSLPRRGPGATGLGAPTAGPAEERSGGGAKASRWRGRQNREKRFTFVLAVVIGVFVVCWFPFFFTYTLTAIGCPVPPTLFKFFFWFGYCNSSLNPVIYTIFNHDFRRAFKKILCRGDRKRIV

Test [3] has as its target T3, Alpha-2B adrenergic receptor (Didelphis virginiana, UniProt O77715).
T3 sequence (O77715 whole entry): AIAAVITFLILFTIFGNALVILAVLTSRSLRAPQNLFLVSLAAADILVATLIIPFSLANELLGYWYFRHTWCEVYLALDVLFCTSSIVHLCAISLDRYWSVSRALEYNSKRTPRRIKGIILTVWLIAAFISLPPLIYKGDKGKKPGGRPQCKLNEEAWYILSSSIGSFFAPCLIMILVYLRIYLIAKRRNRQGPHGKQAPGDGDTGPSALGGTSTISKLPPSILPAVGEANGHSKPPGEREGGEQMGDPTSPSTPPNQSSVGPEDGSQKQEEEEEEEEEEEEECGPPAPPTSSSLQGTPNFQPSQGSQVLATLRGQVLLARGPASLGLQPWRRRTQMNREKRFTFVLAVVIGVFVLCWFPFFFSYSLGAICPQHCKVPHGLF

The target of test [4] is T4, Alpha-2C adrenergic receptor (Rattus norvegicus, UniProt P22086).
T4 sequence (P22086 whole entry): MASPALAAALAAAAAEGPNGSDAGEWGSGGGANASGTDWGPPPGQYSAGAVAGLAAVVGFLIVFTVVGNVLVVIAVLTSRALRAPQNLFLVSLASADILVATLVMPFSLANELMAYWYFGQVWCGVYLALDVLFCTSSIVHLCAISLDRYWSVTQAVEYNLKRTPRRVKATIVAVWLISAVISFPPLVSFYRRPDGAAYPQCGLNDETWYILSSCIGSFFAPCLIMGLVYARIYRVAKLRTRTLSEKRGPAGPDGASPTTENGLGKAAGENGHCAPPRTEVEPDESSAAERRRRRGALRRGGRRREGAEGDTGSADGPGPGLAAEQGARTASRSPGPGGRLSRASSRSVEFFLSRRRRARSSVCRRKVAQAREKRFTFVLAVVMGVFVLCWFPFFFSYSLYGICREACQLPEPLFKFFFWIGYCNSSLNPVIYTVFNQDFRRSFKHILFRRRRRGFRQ

The structures appear in SMILES notation. pKi: −log10 of the molar value. Values joined by “and” are separate entries in the source; they are usually repeats but may differ in a detail not shown here. Equal entries are not always repeated.

The term pKi denotes the Ki on a negative log10 scale, so that one unit is a factor of ten. Higher therefore signals a low Ki.

As to `CC(C)=CCOc1ccc(Cl)c2c1CCN(C)CC2` [SK&F-104078], the pKi in test [1] is 7.40; in test [2] it was 7.09 and 6.84; in test [3], 7.37 and 7.26; in test [4] it was 7.31 and 7.16.
`COc1cccc(OC)c1OCCNCC1Oc2ccccc2OC1c1ccccc1` (stereo unspecified) [NSC_185453]: the pKi in test [1] was 8.66; in test [2], 8.12 and 7.87; in test [3] it was 9.20 and 9.00; in test [4] it was 8.11 and 7.73.
For the compound `COc1cc2nc(N3CCN(C(=O)c4ccco4)CC3)nc(N)c2cc1OC` [[3H]-Minipress], the pKi in test [2] is 6.16 and 5.88; in test [3] it was 6.88 and 6.93.
Consider `NCC(O)c1ccc(O)c(O)c1` (stereo not drawn) [Noradrenaline,(+)], for which the negative logarithm of the Ki (pKi) in test [2] was 6.03 and 5.98; in test [3], 7.55.
With `CN1C[C@H](Cn2ccnc2-c2ccccc2)C[C@@H]2c3cccc4[nH]c(Br)c(c34)C[C@H]21` [BAM-1303], the pKi in test [1] is 9.03; in test [2], 7.27 and 6.70; in test [3] it was 9.42 and 9.33; in test [4] it was 8.16 and 8.06.
For `COc1ccccc1N1CCN(CCC2C(=O)c3ccccc3C(C)(C)C2=O)CC1` (stereo unspecified) [NSC_122211], the pKi in test [1] was 6.66; in test [2] it was 6.83 and 6.49; in test [3], 7.89 and 7.33; in test [4] it was 8.80 and 8.64.
On to `O=C1NCN(c2ccccc2)C12CCN(CC1COc3ccccc3O1)CC2` (stereo unspecified) [8-(2,3-Dihydro-benzo[1,4]dioxin-2-ylmethyl)-1-phenyl-1,3,8-triaza-spiro[4.5]decan-4-one], for which the pKi in test [1] is 8.02; in test [2], 8.03 and 7.92; in test [3], 9.59 and 9.21; in test [4], 9.55 and 9.15.
As to `Cc1cc(C(C)(C)C)c(O)c(C)c1CC1=NCCN1` [SMR000059324], the pKi in test [2] was 7.42 and 7.48; in test [3], 7.82.

These data come from BindingDB's records for PubMed 7908054 (University of Nebraska, 1994).
